Read-outs that look alike come from different tables or passages of the source.
Experiments:
[1] = biological target: T1, human serotonin 5-HT1A receptor (Homo sapiens, UniProt P08908); experiment: Competition radioligand binding, [3H]-8-OH-DPAT, HEK293 membranes; conditions: human cloned 5-HT1A
T1 construct: expressed in transfected cells; host or cells: HEK293
T1 sequence (P08908 1-422): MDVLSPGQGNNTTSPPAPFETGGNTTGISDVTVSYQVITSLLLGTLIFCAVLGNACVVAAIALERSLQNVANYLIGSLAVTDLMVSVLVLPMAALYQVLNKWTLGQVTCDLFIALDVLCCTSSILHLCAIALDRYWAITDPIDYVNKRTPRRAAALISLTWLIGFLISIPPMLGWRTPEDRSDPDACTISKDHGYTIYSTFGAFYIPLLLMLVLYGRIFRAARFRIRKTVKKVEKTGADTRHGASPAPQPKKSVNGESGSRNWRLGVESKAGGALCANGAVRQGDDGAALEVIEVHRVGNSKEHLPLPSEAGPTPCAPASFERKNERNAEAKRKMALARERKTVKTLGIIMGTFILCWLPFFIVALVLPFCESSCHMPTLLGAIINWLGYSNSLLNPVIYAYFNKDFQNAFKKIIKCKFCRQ
Procedure: (§1) Experiments were carried out in membranes from cell lines stably expressing the human cloned receptors.
(§2) Competition radioligand binding assays were performed on membranes isolated from cell lines stable expressing the cloned human receptors, which were either in-house or commercially available. […] Assays (250 μL assay final volume) were carried out in 96-well polypropylene plates in duplicate. In short, suspension of appropriate membrane protein was incubated in assay buffer with addition of the corresponding radioligand, in the presence or absence of tested compound or reference compound. […] After the incubation, the content of the test plates was transferred to 96-well plates with glass fibre filter GF/B or GF/C, previously pre-treated with polyethyleneimine (PEI), and rapidly filtered with the use of vacuum, followed by rapid washing with cold (4 °C) wash buffer. After that the filter plates were dried at 60 °C for 1 h. Then, 30 μL of liquid scintillation cocktail (UniverSol-ES, MP Biomedicals, Solon, OH) was added to each well of the filter plates and the radioactivity was measured in a MicroBeta2 microplate scintillation counter (PerkinElmer, Madrid, Spain).
(§3) Competition binding curves were fitted to a one-site competition binding model (Fit Ki) with the use of Prism 7 software (GraphPad, San Diego, CA). logKi (log of the equilibrium dissociation constant (Ki)) values were obtained after constraining the concentration of radioligand employed in the assay and its dissociation constant (KD) as determined in saturation radioligand binding assays.

[2] = biological target: T2, human 5-HT2A receptor (Homo sapiens, UniProt P28223); experiment: Functional assay of inositol phosphate production (5-HT2A antagonism), CHO-K1 cells; format: cell-based; conditions: for inhibition at 10 µM: CHO-K1, read-out: 5-HT2A antagonism %inh. of 5-HT response; for Kb: read-out: 5-HT2A antagonism (IP signalling) Kb
T2 construct: expressed in transfected cells; host or cells: CHO-K1
T2 sequence (P28223 whole entry): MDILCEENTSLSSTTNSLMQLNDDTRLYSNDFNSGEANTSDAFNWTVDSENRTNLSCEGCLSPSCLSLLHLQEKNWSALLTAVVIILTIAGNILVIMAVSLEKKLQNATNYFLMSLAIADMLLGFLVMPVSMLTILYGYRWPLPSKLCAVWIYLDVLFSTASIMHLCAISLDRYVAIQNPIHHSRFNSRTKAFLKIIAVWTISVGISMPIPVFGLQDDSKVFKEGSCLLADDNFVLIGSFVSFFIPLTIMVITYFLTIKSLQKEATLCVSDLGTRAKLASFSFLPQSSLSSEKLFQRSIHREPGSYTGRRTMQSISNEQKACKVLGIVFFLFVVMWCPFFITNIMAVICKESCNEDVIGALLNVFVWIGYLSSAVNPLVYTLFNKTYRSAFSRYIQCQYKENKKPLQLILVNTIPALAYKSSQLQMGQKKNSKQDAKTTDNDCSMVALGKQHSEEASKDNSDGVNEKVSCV
Procedure: The activity of selected compounds at 5-HT2A receptors was investigated in cell-based functional assays of IP production in the CHO-K1 cell line stably expressing the cloned human 5-HT2A receptor also employed for the radioligand binding assays. Twenty-four hours before the experiment, cells in culture were seeded in complete growth medium prepared with dialysed foetal bovine serum, in half-area, white, 96-well tissue culture plates (Corning®, Fisher Scientific SL, Madrid, Spain). At the day of assay, plates were washed with assay buffer (kit stimulation buffer) and incubated with test compounds for 10 min at 37 °C. Test compounds were added to the assay plates from 7× working dilution intermediate plates that were prepared by means of acoustic noncontact dispensing of the compounds, keeping vehicle concentration (0.1% DMSO) constant in the assay. […] After this time, cellular IP levels were quantified by using the HTRF-based inositol monophosphate kit IP-One Gq kit (Cisbio, Bioassays, Codolet, France) following the manufacturer’s protocol. […] Basal IP levels were determined in control wells in the absence of compound and agonist. […] Kb value of the compounds was estimated as described above for functional assays of cAMP signalling at D2 receptors.

[3] = tested on: mice; experiment: Elevated plus maze (EPM) test (anxiety); conditions: 60 min before test
[4] = biological target: T3, human serotonin 5-HT2A receptor (Homo sapiens, UniProt P28223); experiment: Competition radioligand binding, [3H]-Ketanserin, CHO-K1 membranes; conditions: for Ki: human cloned 5-HT2A; for pKi 5-HT2A/pKi D2: ratio of pKi values
T3 construct: expressed in transfected cells; host or cells: CHO-K1
T3 sequence (P28223 whole entry): as above
Procedure: as §1, §2, §3

[5] = tested on: mice; experiment: Passive avoidance (PA) test (memory); conditions: 60 min before test
[6] = biological target: T4, human histamine H1 receptor (Homo sapiens, UniProt P35367); experiment: Competition radioligand binding, [3H]-pyrilamine, CHO-K1 membranes
T4 construct: expressed in transfected cells; host or cells: CHO-K1
T4 sequence (P35367 whole entry): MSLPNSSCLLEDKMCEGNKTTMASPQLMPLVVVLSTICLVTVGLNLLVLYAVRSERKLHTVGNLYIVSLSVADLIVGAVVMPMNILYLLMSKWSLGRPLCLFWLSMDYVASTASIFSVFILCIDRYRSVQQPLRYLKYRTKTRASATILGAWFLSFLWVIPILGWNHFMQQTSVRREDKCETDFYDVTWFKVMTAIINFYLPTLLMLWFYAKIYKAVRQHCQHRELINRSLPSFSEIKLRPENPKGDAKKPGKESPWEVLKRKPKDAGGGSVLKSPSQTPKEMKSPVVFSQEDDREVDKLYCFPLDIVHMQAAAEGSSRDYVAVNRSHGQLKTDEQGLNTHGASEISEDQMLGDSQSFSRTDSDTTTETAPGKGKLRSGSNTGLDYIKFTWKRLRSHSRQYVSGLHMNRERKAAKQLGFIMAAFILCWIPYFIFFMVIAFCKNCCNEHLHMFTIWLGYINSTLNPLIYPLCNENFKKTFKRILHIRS
Procedure: as §2, §3

[7] = tested on: mice; experiment: Rota-rod test (motor coordination); format: in vivo; conditions: 60 min after treatment, 3 min
Procedure: To fully assess the impact of selected compounds on animals’ motor coordination, both compounds (at the same doses as were used for spontaneous locomotor activity measurements) were tested also in the rota-rod test. The applied protocol has been already validated in our laboratory[12]^,[62]^,[63]. […] The time spent by each mouse on the rota-rod was measured for 3 min. The additional aim of the rota-rod test was to confirm the appropriate selection of doses for further behavioural examination. […] After such confirmation, the above-mentioned doses were chosen for the rest of behavioural tests.

[8] = tested on: mice; experiment: Amphetamine-induced hyperactivity; conditions: p < 0.0001; for Effect on amphetamine-induced hyperactivity: 30 min before amphetamine 5 mg/kg s.c.
[9] = biological target: T5, human 5-HT7 receptor (Homo sapiens, UniProt P34969); experiment: Competition radioligand binding, [3H]-SB269970, HEK293 membranes
T5 construct: expressed in transfected cells; host or cells: HEK293
T5 sequence (P34969 whole entry): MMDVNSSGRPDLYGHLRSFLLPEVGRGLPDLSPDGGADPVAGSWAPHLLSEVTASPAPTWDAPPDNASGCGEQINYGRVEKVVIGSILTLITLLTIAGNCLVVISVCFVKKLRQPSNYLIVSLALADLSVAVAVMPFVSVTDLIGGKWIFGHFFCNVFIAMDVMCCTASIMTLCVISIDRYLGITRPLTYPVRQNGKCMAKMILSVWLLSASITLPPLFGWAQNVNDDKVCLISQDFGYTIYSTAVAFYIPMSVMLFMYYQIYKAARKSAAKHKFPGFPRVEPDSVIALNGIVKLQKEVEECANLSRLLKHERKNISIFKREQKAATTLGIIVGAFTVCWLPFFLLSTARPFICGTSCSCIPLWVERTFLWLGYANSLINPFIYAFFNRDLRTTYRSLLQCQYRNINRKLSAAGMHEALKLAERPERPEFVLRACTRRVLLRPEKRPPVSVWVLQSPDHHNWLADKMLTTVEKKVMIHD
Procedure: as §2, §3

[10] = biological target: human D2S receptor (Homo sapiens, UniProt P14416); experiment: Functional assay of cAMP signalling (D2 antagonism), CHO-K1 cells; conditions: for inhibition at 1 µM: CHO-K1, read-out: % of inhibition of 1 µM dopamine response; for inhibition at 10 µM: CHO-K1, read-out: D2 antagonism %inh. of DA response
human D2S receptor, sequence (P14416 1-414 isoform P14416-2): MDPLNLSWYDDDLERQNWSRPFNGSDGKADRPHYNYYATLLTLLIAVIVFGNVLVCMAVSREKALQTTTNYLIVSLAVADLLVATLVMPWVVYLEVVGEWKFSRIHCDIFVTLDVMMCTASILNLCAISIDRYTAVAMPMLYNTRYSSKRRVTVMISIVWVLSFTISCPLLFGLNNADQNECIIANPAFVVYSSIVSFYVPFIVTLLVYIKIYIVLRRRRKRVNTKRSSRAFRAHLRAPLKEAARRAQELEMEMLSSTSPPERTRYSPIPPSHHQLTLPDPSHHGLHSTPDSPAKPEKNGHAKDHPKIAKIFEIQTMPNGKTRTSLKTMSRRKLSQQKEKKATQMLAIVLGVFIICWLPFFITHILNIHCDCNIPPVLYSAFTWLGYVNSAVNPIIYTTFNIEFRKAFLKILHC

[11] = biological target: T6, human dopamine D3 receptor (Homo sapiens, UniProt P35462); experiment: Competition radioligand binding, [3H]-spiperone, CHO-K1 membranes
T6 construct: expressed in transfected cells; host or cells: CHO-K1
T6 sequence (P35462 whole entry): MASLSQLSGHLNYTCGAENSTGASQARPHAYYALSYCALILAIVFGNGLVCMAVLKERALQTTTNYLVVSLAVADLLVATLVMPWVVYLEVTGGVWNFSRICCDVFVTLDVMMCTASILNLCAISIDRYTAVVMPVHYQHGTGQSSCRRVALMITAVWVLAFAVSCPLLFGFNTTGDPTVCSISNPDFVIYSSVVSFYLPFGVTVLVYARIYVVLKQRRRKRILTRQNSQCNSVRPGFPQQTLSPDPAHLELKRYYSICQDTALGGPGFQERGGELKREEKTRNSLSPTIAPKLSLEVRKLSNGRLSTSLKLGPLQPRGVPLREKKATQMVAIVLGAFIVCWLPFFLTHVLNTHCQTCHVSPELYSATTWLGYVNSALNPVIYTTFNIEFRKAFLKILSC
Procedure: as §2, §3

[12] = biological target: T7, human dopamine D1 receptor (Homo sapiens, UniProt P21728); experiment: Competition radioligand binding, [3H]-SCH-23390, CHO-K1 membranes
T7 construct: expressed in transfected cells; host or cells: CHO-K1
T7 sequence (P21728 whole entry): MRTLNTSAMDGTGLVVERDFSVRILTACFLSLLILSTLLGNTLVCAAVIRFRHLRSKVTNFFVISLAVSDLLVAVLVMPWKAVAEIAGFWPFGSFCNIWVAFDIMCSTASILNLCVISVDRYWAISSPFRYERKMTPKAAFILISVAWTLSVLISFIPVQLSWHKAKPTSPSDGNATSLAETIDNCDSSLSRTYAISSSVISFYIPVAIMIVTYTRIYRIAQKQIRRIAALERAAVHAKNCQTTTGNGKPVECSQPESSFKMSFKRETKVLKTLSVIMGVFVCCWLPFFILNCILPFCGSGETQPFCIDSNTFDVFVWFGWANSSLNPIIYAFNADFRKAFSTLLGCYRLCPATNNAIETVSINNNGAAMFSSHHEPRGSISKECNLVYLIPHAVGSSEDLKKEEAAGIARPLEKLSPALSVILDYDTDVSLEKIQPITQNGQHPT
Procedure: Competition radioligand binding assays were performed on membranes isolated from cell lines stable expressing the cloned human receptors, which were either in-house or commercially available. […] Assays (250 μL assay final volume) were carried out in 96-well polypropylene plates in duplicate. In short, suspension of appropriate membrane protein was incubated in assay buffer with addition of the corresponding radioligand, in the presence or absence of tested compound or reference compound. […] Then, 30 μL of liquid scintillation cocktail (UniverSol-ES, MP Biomedicals, Solon, OH) was added to each well of the filter plates and the radioactivity was measured in a MicroBeta2 microplate scintillation counter (PerkinElmer, Madrid, Spain).
as §3

[13] = biological target: T8, human 5-HT1A receptor (Homo sapiens, UniProt P08908); experiment: Functional assay of cAMP signalling (5-HT1A agonism), HEK293 cells; format: cell-based; conditions: for inhibition at 10 µM: HEK293, 10 µM compound, 1 µM forskolin, read-out: 5-HT1A agonism %inh. of FSK response
T8 construct: expressed in transfected cells; host or cells: HEK293
T8 sequence (P08908 1-422): T1 sequence (P08908 1-422)
Procedure: The activity of selected compounds at 5-HT1A receptor was investigated in cell-based functional assays of cAMP signalling in the HEK293 cell line stably expressing the cloned human 5-HT1A receptor also employed for the radioligand binding assays. […] Test compounds were added to the assay plates from 5× working dilution intermediate plates, which were prepared by means of acoustic noncontact dispensing of the compounds, keeping vehicle concentration (0.1% DMSO) constant in the assay.

[14] = tested on: mice; experiment: Spontaneous locomotor activity; conditions: recorded 30 min, 30 min after injection
[15] = biological target: T9, human muscarinic M1 receptor (Homo sapiens, UniProt P11229); experiment: Competition radioligand binding, [3H]-pirenzepine, CHO-K1 membranes; conditions: read-out: % inh. at 10 μM M1
T9 construct: expressed in transfected cells; host or cells: CHO-K1
T9 sequence (P11229 1-460): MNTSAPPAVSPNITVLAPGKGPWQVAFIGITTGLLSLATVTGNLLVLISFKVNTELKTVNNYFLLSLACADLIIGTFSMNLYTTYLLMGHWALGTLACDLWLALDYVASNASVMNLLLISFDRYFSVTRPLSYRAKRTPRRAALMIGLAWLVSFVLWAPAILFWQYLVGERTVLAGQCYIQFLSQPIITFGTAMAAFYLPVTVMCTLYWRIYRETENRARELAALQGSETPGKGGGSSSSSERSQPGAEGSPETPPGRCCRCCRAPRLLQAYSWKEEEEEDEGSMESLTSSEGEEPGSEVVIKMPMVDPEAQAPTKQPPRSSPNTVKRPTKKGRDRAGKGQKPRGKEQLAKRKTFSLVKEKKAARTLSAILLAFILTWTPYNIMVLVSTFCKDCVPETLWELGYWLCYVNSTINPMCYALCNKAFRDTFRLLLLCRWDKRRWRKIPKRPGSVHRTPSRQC
Procedure: as §2, §3

[16] = biological target: T10, human dopamine D2 (D2S) receptor (Homo sapiens, UniProt P14416); experiment: Competition radioligand binding, [3H]-spiperone, CHO-K1 membranes; conditions: human cloned D2S; read-out: Ki D2 (converted)
T10 construct: expressed in transfected cells; host or cells: CHO-K1
T10 sequence (P14416 1-414 isoform P14416-2): as the sequence (P14416 1-414 isoform P14416-2) above
Procedure: as §1, §2, §3

[17] = read-out: Ki 5-HT1A (converted)

SMILES	Ki [1, 17]	inhibition at 10 µM [2]	Kb [2]	Ki [4]	pKi 5-HT2A/pKi D2 [4]	Ki [6]	Ki [9]	Kb [10]	inhibition at 1 µM [10]	inhibition at 10 µM [10]	Ki [11]	Ki [12]	EC50 [13]	inhibition at 10 µM [13]	inhibition at 10 µM [15]	Ki [16]	further results
O=C(NCCCN1CCN(c2cccc(F)c2)CC1)c1n[nH]c2ccccc12 [Compound 10, N-(3-(4-(3-fluorophenyl)piperazin-1-yl)propyl)-1H-indazole-3-carboxamide]	114 nM	96.8 ± 2%	101 ± 31 nM	94.4 nM	1.07	1000 nM	589 nM	31.2 nM	50.8 ± 5.4%	52.6 ± 9.8%	719 nM	181 nM	356 ± 83 nM	90.2 ± 4.1%	0%		Ki ([1]; mean ± SEM, read-out: pKi 5-HT1A (converted)): 112 nM; Effect on anxiety in EPM test ([3]; 40 mg/kg i.p.): no statistically significant effect on the EPM performance; Effect on PA performance (memory acquisition) ([5]; 40 mg/kg i.p.): no statistically significant effect on PA performance; Motor coordination (rota-rod) ([7]; 20, 40, and 80 mg/kg i.p.): lack of statistically significant difference; Effect on amphetamine-induced hyperactivity ([8]; 40 mg/kg i.p.): significantly reduced hyperactivity induced by amphetamine; Spontaneous locomotor activity ([14]; 20, 40, and 80 mg/kg i.p.): did not induce statistically significant changes
CC(N)Cc1ccccc1 (centres unmarked) [amphetamine, reference compound]																	Locomotor activity vs. vehicle group ([8]; 5 mg/kg s.c., recorded 30 min): increased locomotor activity
O=C(NCCCN1CCN(c2ccccc2)CC1)c1n[nH]c2ccccc12 [Compound 1, N-(3-(4-phenylpiperazin-1-yl)propyl)-1H-indazole-3-carboxamide]	155 nM	99.1 ± 2.5%	80.2 ± 20.1 nM	35.6 nM	1.04	474 nM	540 nM	22.5 nM	48.5 ± 4.9%	50.3 ± 6.3%	711 nM	241 nM	324 ± 69 nM	85.1 ± 3.3%	21 ± 6%	69 nM	Effect on anxiety in EPM test ([3]; 10 mg/kg i.p.): anxiolytic effect; Percentage of open arm entries (EPM) ([3]; 10 mg/kg i.p., vs. control): increase; Percentage of open arm time (EPM) ([3]; 10 mg/kg i.p., vs. control): increase; Effect on PA performance (memory acquisition) ([5]; 10 mg/kg i.p.): no statistically significant effect on PA performance; Motor coordination (rota-rod) ([7]; 10, 20, and 40 mg/kg i.p.): lack of statistically significant difference; Effect on amphetamine-induced hyperactivity ([8]; 10 mg/kg i.p.): significantly reduced hyperactivity induced by amphetamine; Spontaneous locomotor activity ([14]; 10 mg/kg i.p.): did not impair animals’ mobility; Spontaneous locomotor activity ([14]; 20 mg/kg i.p., p < 0.05): statistically significant decrease in the locomotor activity; Spontaneous locomotor activity ([14]; 40 mg/kg i.p., p < 0.05): statistically significant decrease in the locomotor activity
O=C(NCCCN1CCN(c2ccc(F)cc2)CC1)c1n[nH]c2ccccc12 [Compound 11, N-(3-(4-(4-fluorophenyl)piperazin-1-yl)propyl)-1H-indazole-3-carboxamide]	607 nM	103 ± 2.2%	19.2 ± 7.2 nM	12.6 nM	1.24	364 nM	196 nM	99.1 nM	21.3 ± 4.3%	49.7 ± 8%	5010 nM		5600 ± 1200 nM	75.3 ± 6.8%	0%	450 nM	
